The results in this text go back to US8377478B2, “Solid detergent composition” (Innospec Limited, priority 2007, dated 2013).

Molecules are shown by their SMILES.

Assay type in all cases: physicochemical
The nature of data set [1]: Appearance of the materials observed periodically over 72 hours. On the procedure:
The appearance of each of the materials was observed periodically over 72 hours. The observations are recorded in table 2.

The nature of data set [2]: Increase in mass of the samples over time. The text has this: Table 3 show how the samples increased in mass over time.
Data set [3] is described as follows: Solubility: EDDS content of a saturated solution in water. As to conditions: room temperature, stirred overnight, as free EDDS, ignoring counter ion. On the procedure: The solubility of each sample was measured as follows: An excess of solid material was added to 5 ml of water and stirred overnight at room temperature. The solution was filtered and the filtrate analysed for EDDS content by HPLC. The solubility values given in table 4 refer to the amount of free EDDS or succinate ion present and ignore the mass of any associated counter ion.

Consider `O=C1CCC(=O)ON2CCN(O1)OC(=O)CCC(=O)O2.[Na].[Na].[Na]` [Na3EDDS, trisodium ethylenediamine disuccinate], for which, in data set [1], the “Appearance after 48 hr” value is “Very Sticky”, the “Appearance after 72 hr” value is “Very Sticky” and the “Initial Appearance” value was “Free flowing”. Further, the “Appearance after 24 hr” value in data set [1] (cell in the 24 hr column marked (2 hr)) is listed as “Sticky Solid”. In addition, the “% increase in mass after 72 hr” value in data set [2] is 25%.

In the case of `O=C([O-])CC(NCCNC(CC(=O)[O-])C(=O)[O-])C(=O)[O-].[Ca+2].[Ca+2]` (centres unmarked) [F], in data set [1] (after 24 hr), the “Appearance after 24 hr” value was “Slightly”. Moreover, in data set [1], the “Appearance after 48 hr” value is “Slightly”, the “Appearance after 72 hr” value was “Slightly” and the “Initial Appearance” value is given as “Free flowing”. For the same compound, the “% increase in mass after 72 hr” value in data set [2] is 8.81%. The “EDDS content of a saturated solution solubility” value in data set [3] was determined as 10100 mg/kg.

As for `O=C([O-])CC(NCCNC(CC(=O)[O-])C(=O)[O-])C(=O)[O-].[Mg+2].[Mg+2]` (centres unmarked) [Example A], the “Appearance after 24 hr” value in data set [1] (after 24 hr) was “Free flowing”. Besides, in data set [1], the “Appearance after 48 hr” value is “Free flowing”, the “Appearance after 72 hr” value is “Free flowing” and the “Initial Appearance” value is “Free flowing”. Moreover, the “% increase in mass after 72 hr” value in data set [2] is listed as 0.10%. For the same compound, the “EDDS content of a saturated solution solubility” value in data set [3] turned out to be 164300 mg/kg.
